How the values were obtained:
[1] = test system: Escherichia coli strain ATCC 25922; experiment: Inhibition of bacterial growth on plate, E. coli; assay type: cell-based
Experimental: The antibacterial activity of chondroitin (C) and chondroitin sulphate (CS) on the growth of Escherichia coli ATCC 25922 and Enterococcus faecalis ATCC 19433 on a solid medium in vitro was examined. The concentrations explored ranged from 40 μg/mL to 40 mg/mL of C or CS as final concentrations in the medium. Brain-heart infusion (Oxoid) was used as culture medium for E. coli ATCC 25922, and M17 (Oxoid) for E. faecalis ATCC 19433; both media were adjusted to the same pH and the same osmolarity before being solidified by adding agar and cooled. 100 μL of a bacterial suspension containing 10^2, 10^3 or 10^4 bacteria/mL was plated as inoculum. The plates inoculated were incubated in shakers in air at 37° C. for 16 h. The number of colonies was then counted on control plates in the absence of the substances under study and on plates at the various concentrations of C and CS. The data from the experiments for the two micro-organisms, conducted in triplicate for each of the conditions, are shown in tables 7 and 8.

[2] = test system: mini-pig dorsal wounds; experiment: Wound repair in the mini-pig, topical treatment; assay type: in vivo; design: key to d) Histological evaluation of biopsies after 4 weeks / e) Histological evaluation of biopsies after 6 weeks: collagen organisation 1-3; 3 = best healing, 1 = parallel bundles; details: for a) Evaluation of wound quality after 4 weeks: 2.5 mL twice a day, 5 excellent; for a) Evaluation of wound quality after 4 weeks / b) Evaluation of wound quality after 6 weeks: 5-point scale; for d) Histological evaluation of biopsies after 4 weeks / e) Histological evaluation of biopsies after 6 weeks: collagen organisation, 3-point scale; for c) Histopathological evaluation after 6 weeks: scale of 1 to 3, 3 optimum healing
Description: The mini-pig (an animal weighing 25-28 Kg), a model whose validity for wound-repair studies is widely recognised, was used as experimental model to evaluate the ability of chondroitin to accelerate the repair process of damaged skin tissue. Operating under general anaesthetic from the back of the animals, the hair was shaved and the shaven area was washed thoroughly with a 10% solution of iodine-polyvinylpyrrolidone complex and then with isopropyl alcohol. 12 elliptical wounds, six on each side, 20 mm long and 6 mm wide, were made on the shaven, disinfected backs of the animals. The wounds penetrated as far as the subcutaneous fat, about 4 cm from the median line of the back, with the longer side of the wound parallel to the spinal line. The incisions were then sewn with two stitches to close the dermal plane. The superficial stitches were removed after about 7 days. The wounds were covered with a non-adhesive dressing secured with sticking plaster, and the body of the animals was protected with an elastic bandage. Eight animals were selected and divided into two groups of 4, treated topically with chondroitin (first group) or chondroitin sulphate (second group), as described in the protocol shown in Table 11. Starting from the head of the animal, the first two wounds on both sides were treated with the carrier alone, consisting of 2.5 mL of saline, the second two on both sides were treated with 2.5 mL of a 30 mg/mL solution of chondroitin in saline (first group) or with 2.5 mL of a 30 mg/mL solution of chondroitin sulphate in saline (second group), and the third two on both sides were treated with 2.5 mL of a 60 mg/mL solution of chondroitin in saline (first group) or 2.5 mL of a 60 mg/mL solution of chondroitin sulphate in saline (second group). The treatment was performed by slowly dripping the solution into the wound twice a day and dabbing with a gauze dressing, which was then used to cover the wound so that the active ingredient remained in situ for longer. The study continued for 6 weeks, after which the animals were euthanized. A biopsy of about 4 mm was taken after 4 weeks, while the entire areas of the 12 dorsal wounds were removed from the euthanized animals for histological tests. The following evaluations were performed on the treated animals:
a) an evaluation after 4 and 6 weeks by 4 dermatologists who independently assessed the quality of the wound (colour, texture, edges, distortion) and the appearance of the surrounding tissue on a 5-point scale;
b) a pathological evaluation on a scale of 1 to 3 conducted by two veterinary surgeons on the tissue removed after the animals were euthanized, to evaluate the presence of abnormal histopathological situations (quantity of granulation tissue and inflammatory response, with a score from 3 for optimum healing to 1 for ongoing inflammatory symptoms and abundant granulation tissue);
c) a histological analysis of the 4-week biopsies and the tissue removed after the animals were euthanized, conducted by two histologists operating independently, who evaluated the organisation of the collagen on a 3-point scale. An organisation of the collagen fibres similar to the normal model, but smaller than normal dermis (the best healing), scored 3 points, an intermediate arrangement of the fibre weave scored 2 points, and several fibres arranged in parallel bundles or on a plane scored 1 point.

[3] = test system: dogs suffering from DJD; experiment: Treatment of degenerative joint disease in dogs; assay type: in vivo, dog; details: dogs with DJD, 15 mg/Kg/day with food, 6 months; scale of 1 to 10; placebo 2.5±1.3
Experimental: The therapeutic potential of chondroitin in the treatment of joint disease was evaluated in the dog, an experimental model wherein degenerative or inflammatory orthopaedic problems associated with degenerative joint disease (DJD) are particularly recurrent at both young and geriatric age.
The study was conducted on 90 animals with a mean weight of 30±10 Kg, a mean age of about 8 years, of different breeds, both males and females, all suffering from DJD of the shoulder, hip and/or stifle, randomised into three groups of 30 animals treated with 15 mg/Kg/day of chondroitin (C group), 15 mg/Kg/day of chondroitin sulphate (CS group) or 15 mg/Kg/day of starch (placebo group). The animals received the daily dose with their food. An X-ray and a set of diagnostic tests for DJD were conducted on a preliminary basis on all the animals included in the study. […] The study continued for 6 months; during the treatment, the animals, which were cared for by their owners, were monitored by three veterinary surgeons who independently evaluated the state of the animals. Every month the animals' owners and the three veterinary surgeons filled in a questionnaire, allocating a score on a scale of 1-5 to a set of parameters. Once a month the owners evaluated, on a scale of 1 to 5, the lameness of the animal, its willingness to play, load tolerance, and behaviour indicating pain symptoms. […]

[4] = 40 μg/mL, 10 bacteria inoculated
[5] = 40 μg/mL, 100 bacteria inoculated
[6] = 40 μg/mL, 1000 bacteria inoculated
[7] = 400 μg/mL, 10 bacteria inoculated
[8] = 400 μg/mL, 100 bacteria inoculated
[9] = 400 μg/mL, 1000 bacteria inoculated
[10] = 4 mg/mL, 10 bacteria inoculated
[11] = 4 mg/mL, 100 bacteria inoculated
[12] = 4 mg/mL, 1000 bacteria inoculated
[13] = 40 mg/mL, 10 bacteria inoculated
[14] = 40 mg/mL, 100 bacteria inoculated
[15] = 40 mg/mL, 1000 bacteria inoculated

| Substance | Inhibition factor ([1]; 40 μg/mL) | CFU after 16 h [1, 4] [CFU] | CFU after 16 h [1, 5] [CFU] | CFU after 16 h [1, 6] [CFU] | Inhibition factor ([1]; 400 μg/mL) | Qualitative valuation of inhibition ([1]; 400 μg/mL) | CFU after 16 h [1, 7] [CFU] | CFU after 16 h [1, 8] [CFU] | CFU after 16 h [1, 9] [CFU] | Inhibition factor ([1]; 4 mg/mL) | Qualitative valuation of inhibition ([1]; 4 mg/mL) | CFU after 16 h [1, 10] [CFU] | CFU after 16 h [1, 11] [CFU] | CFU after 16 h [1, 12] [CFU] | Inhibition factor ([1]; 40 mg/mL) | Qualitative valuation of inhibition ([1]; 40 mg/mL) | CFU after 16 h [1, 13] [CFU] | CFU after 16 h [1, 14] [CFU] | CFU after 16 h [1, 15] [CFU] | a) Evaluation of wound quality after 4 weeks ([2]; 30 mg/mL) | further results |
| --- | --- | --- | --- | --- | --- | --- | --- | --- | --- | --- | --- | --- | --- | --- | --- | --- | --- | --- | --- | --- | --- |
| chondroitin | 1.3 | 7 ± 2 | 80 ± 5 | 800 ± 70 | 9 | significant | 2 ± 1 | 10 ± 2 | 120 ± 30 | 66 | high | 0 | 1 ± 1 | 20 ± 4 | 1000 | total inhibition of growth | 0 | 0 | 0 | 3.8 ± 0.4 | Qualitative valuation of inhibition ([1]; 40 μg/mL): mild; b) Evaluation of wound quality after 6 weeks ([2]; 30 mg/mL): 4.5 ± 0.3; d) Histological evaluation of biopsies after 4 weeks ([2]; 30 mg/mL): 2.3 ± 0.2; e) Histological evaluation of biopsies after 6 weeks ([2]; 30 mg/mL): 2.7 ± 0.1; c) Histopathological evaluation after 6 weeks ([2]; 30 mg/mL): 2.3 ± 0.1; a) Evaluation of wound quality after 4 weeks ([2]; 60 mg/mL): 4.1 ± 0.3; b) Evaluation of wound quality after 6 weeks ([2]; 60 mg/mL): 4.9 ± 0.1; d) Histological evaluation of biopsies after 4 weeks ([2]; 60 mg/mL): 2.7 ± 0.1; e) Histological evaluation of biopsies after 6 weeks ([2]; 60 mg/mL): 3.0 ± 0.2; c) Histopathological evaluation after 6 weeks ([2]; 60 mg/mL): 3.0 ± 0.2; average overall score for the regression of the disease [3]: 8.5±2.1 |
| chondroitin sulphate [CS, reference compound] | 1 | 7 ± 2 | 85 ± 7 | 860 ± 70 | 2 | mild | 5 ± 1 | 50 ± 5 | 400 ± 70 | 10 | significant | 0 | 9 ± 2 | 100 ± 10 | 330 | high | 0 | 0 | 3 ± 1 | 2.6 ± 0.2 | b) Evaluation of wound quality after 6 weeks ([2]; 30 mg/mL): 3.4 ± 0.3; d) Histological evaluation of biopsies after 4 weeks ([2]; 30 mg/mL): 1.3 ± 0.1; e) Histological evaluation of biopsies after 6 weeks ([2]; 30 mg/mL): 1.7 ± 0.2; c) Histopathological evaluation after 6 weeks ([2]; 30 mg/mL): 1.7 ± 0.2; a) Evaluation of wound quality after 4 weeks ([2]; 60 mg/mL): 2.9 ± 0.2; b) Evaluation of wound quality after 6 weeks ([2]; 60 mg/mL): 3.7 ± 0.3; d) Histological evaluation of biopsies after 4 weeks ([2]; 60 mg/mL): 1.3 ± 0.1; e) Histological evaluation of biopsies after 6 weeks ([2]; 60 mg/mL): 1.7 ± 0.1; c) Histopathological evaluation after 6 weeks ([2]; 60 mg/mL): 2.3 ± 0.2; average overall score for the regression of the disease [3]: 5.3±2.3 |

Source: US10206944B2, “Chondroitin for use in medicine” (ALTERGON S.A., priority 2012, dated 2019)
